Assays:
SF-268 (CNS cancer) = test: MTT cytotoxicity assay, SF-268 cells; assay type: cell-based, human; conditions: Homo sapiens; for inhibition at 1 µM / inhibition at 2 µM / inhibition at 4 µM / inhibition at 8 µM / inhibition at 16 µM / inhibition at 32 µM / inhibition at 64 µM / inhibition at 128 µM: SF-268, 72 h, SF268 cells, triplicate values, read-out: cell inhibition; for inhibition at 1 µM: c 1.00 μM; for inhibition at 2 µM: c 2.00 μM; for inhibition at 4 µM: c 4.00 μM; for inhibition at 8 µM: c 8.00 μM; for inhibition at 16 µM: c 16.00 μM; for inhibition at 32 µM: c 32.00 μM; for inhibition at 64 µM: c 64.00 μM; for inhibition at 128 µM: c 128.00 μM; for IC50: SF-268, MTT, 72 h, mean ± SD (n = 3), read-out: IC50 SF268
Protocol: (§1) The cytotoxicity of all compounds against three human tumor cell lines, SF-268 (CNS cancer), MCF-7 (breast cancer), and HepG2 (hepatoma cancer), and normal cell line LX-2 was tested using the MTT assay. Adriamycin was used as a positive control. All cells were seeded into 96-well plates at 5 × 10^4 cells/ml and incubated at 37°C under a 5% CO2 atmosphere for 24 h. Then, the tested compounds were added. After 72 h, MTT solution was added into each well, which was further incubated. The cell-free supernatant was removed and formazan crystals were subsequently dissolved in DMSO. Optical density (OD) was recorded at 490 nm on a microplate reader to calculate the IC50 values.

HepG2 (hepatoma cancer) = test: MTT cytotoxicity assay, HepG2 cells; assay type: cell-based, human; conditions: Homo sapiens; for inhibition at 1 µM / inhibition at 2 µM / inhibition at 4 µM / inhibition at 8 µM / inhibition at 16 µM / inhibition at 32 µM / inhibition at 64 µM / inhibition at 128 µM: HepG2, 72 h, three replicates, read-out: cell inhibition; for inhibition at 1 µM: HepG2, c 1.00 μM; for inhibition at 2 µM: HepG2, c 2.00 μM; for inhibition at 4 µM: HepG2, c 4.00 μM; for inhibition at 8 µM: HepG2, c 8.00 μM; for inhibition at 16 µM: HepG2, c 16.00 μM; for inhibition at 32 µM: HepG2, c 32.00 μM; for inhibition at 64 µM: HepG2, c 64.00 μM; for inhibition at 128 µM: HepG2, c 128.00 μM; for IC50: HepG2, MTT, 72 h, mean ± SD (n = 3)
Protocol: as §1

MCF-7 (breast cancer) = test: MTT cytotoxicity assay, MCF-7 cells; assay type: cell-based, human; conditions: Homo sapiens; for inhibition at 1 µM / inhibition at 2 µM / inhibition at 4 µM / inhibition at 16 µM / inhibition at 32 µM / inhibition at 64 µM / inhibition at 128 µM / inhibition at 8 µM: MCF7, 72 h, three replicates, read-out: cell inhibition; for inhibition at 1 µM: MCF-7, c 1.00 μM; for inhibition at 2 µM: MCF-7, c 2.00 μM; for inhibition at 4 µM: MCF-7, c 4.00 μM; for inhibition at 16 µM: MCF-7, c 16.00 μM; for inhibition at 32 µM: MCF-7, c 32.00 μM; for inhibition at 64 µM: MCF-7, c 64.00 μM; for inhibition at 128 µM: MCF-7, c 128.00 μM; for IC50: MCF7, MTT, 72 h, mean ± SD (n = 3); for inhibition at 8 µM: MCF-7, c 8.00 μM
Protocol: as §1, with “Adriamycin was used as a positive control.” left out

normal cell line LX-2 = test: MTT cytotoxicity assay, normal cell line LX-2; assay type: cell-based; conditions: 72 h; for inhibition at 1 µM: LX-2, c 1.00 μM; for inhibition at 1 µM / inhibition at 2 µM / inhibition at 4 µM / inhibition at 8 µM / inhibition at 16 µM / inhibition at 32 µM / inhibition at 64 µM / inhibition at 128 µM: three replicates; for inhibition at 2 µM: LX-2, c 2.00 μM; for inhibition at 4 µM: LX-2, c 4.00 μM; for inhibition at 8 µM: LX-2, c 8.00 μM; for inhibition at 16 µM: LX-2, c 16.00 μM; for inhibition at 32 µM: LX-2, c 32.00 μM; for inhibition at 64 µM: LX-2, c 64.00 μM; for inhibition at 128 µM: LX-2, c 128.00 μM; for IC50: MTT, mean ± SD (n = 3)
Protocol: as §1, with “Adriamycin was used as a positive control.” left out

Compound	inhibition at 1 µM (SF-268 (CNS cancer)) [%]	inhibition at 2 µM (SF-268 (CNS cancer)) [%]	inhibition at 4 µM (SF-268 (CNS cancer)) [%]	inhibition at 8 µM (SF-268 (CNS cancer)) [%]	inhibition at 16 µM (SF-268 (CNS cancer)) [%]	inhibition at 32 µM (SF-268 (CNS cancer)) [%]	inhibition at 64 µM (SF-268 (CNS cancer)) [%]	inhibition at 128 µM (SF-268 (CNS cancer)) [%]	IC50 (SF-268 (CNS cancer)) [µM]	inhibition at 1 µM (HepG2 (hepatoma cancer)) [%]	inhibition at 2 µM (HepG2 (hepatoma cancer)) [%]	inhibition at 4 µM (HepG2 (hepatoma cancer)) [%]	inhibition at 8 µM (HepG2 (hepatoma cancer)) [%]	inhibition at 16 µM (HepG2 (hepatoma cancer)) [%]	inhibition at 32 µM (HepG2 (hepatoma cancer)) [%]	inhibition at 64 µM (HepG2 (hepatoma cancer)) [%]	inhibition at 128 µM (HepG2 (hepatoma cancer)) [%]	IC50 (HepG2 (hepatoma cancer)) [µM]	inhibition at 1 µM (MCF-7 (breast cancer)) [%]	inhibition at 2 µM (MCF-7 (breast cancer)) [%]	other results
COc1cccc2c1C(=O)c1c(O)c3c(c(O)c1C2=O)C[C@@](O)(C(=O)CO)C[C@@H]3O[C@H]1C[C@H](N)[C@H](O)[C@H](C)O1 [Adriamycin, reference compound]	35.4	51.1	69.9	76	90.9	96.4	96.5	95.1	1.9 ± 0.03	33.1	48.5	66.2	74.1	89.4	86.2	96.3	95.3	2.2 ± 0.03	27.9	51.4	inhibition at 4 µM (MCF-7 (breast cancer)): 66.5%; inhibition at 16 µM (MCF-7 (breast cancer)): 97%; inhibition at 32 µM (MCF-7 (breast cancer)): 97.4%; inhibition at 64 µM (MCF-7 (breast cancer)): 97.1%; inhibition at 128 µM (MCF-7 (breast cancer)): 97.4%; IC50 (MCF-7 (breast cancer)): 1.5 ± 0.01 µM; inhibition at 1 µM (normal cell line LX-2): 8.56%; inhibition at 2 µM (normal cell line LX-2): 9.36%; inhibition at 4 µM (normal cell line LX-2): 14.5%; inhibition at 8 µM (normal cell line LX-2): 26.4%; inhibition at 16 µM (normal cell line LX-2): 43.4%; inhibition at 32 µM (normal cell line LX-2): 56.2%; inhibition at 64 µM (normal cell line LX-2): 77.2%; inhibition at 128 µM (normal cell line LX-2): 98.1%; IC50 (normal cell line LX-2): > 40 µM
CC(=O)OC(C)C(C)=CC=CC1(C)OC(=O)C(C)C1O (centres unmarked) [compound 1, diaportone A]	2.75	3.91	3.45	6.33	15.7	22.2	37.9	69.3	> 40	8.32	14.4	21.3	23.1	30.1	46.5	71.3	80.3	> 40	7.76	12.6	inhibition at 4 µM (MCF-7 (breast cancer)): 17.8%; inhibition at 8 µM (MCF-7 (breast cancer)): 23.1%; inhibition at 16 µM (MCF-7 (breast cancer)): 29.1%; inhibition at 32 µM (MCF-7 (breast cancer)): 32.5%; inhibition at 64 µM (MCF-7 (breast cancer)): 78.1%; inhibition at 128 µM (MCF-7 (breast cancer)): 83.4%; IC50 (MCF-7 (breast cancer)): > 40 µM; inhibition at 1 µM (normal cell line LX-2): 3.47%; inhibition at 2 µM (normal cell line LX-2): 5.08%; inhibition at 4 µM (normal cell line LX-2): 9.11%; inhibition at 8 µM (normal cell line LX-2): 8.98%; inhibition at 16 µM (normal cell line LX-2): 15.6%; inhibition at 32 µM (normal cell line LX-2): 31.7%; inhibition at 64 µM (normal cell line LX-2): 45.1%; inhibition at 128 µM (normal cell line LX-2): 70.3%; IC50 (normal cell line LX-2): > 40 µM
C/C(=C\C=C\[C@]1(C)OC(=O)[C@@H](C)[C@@H]1O)[C@H](C)O [compound 2, colletolides A]	3.14	4.41	8.45	9.12	19.4	27.1	51.5	70.1	> 40	2.57	3.48	7.34	14.6	19.4	27.5	60.5	75	> 40	1.03	2.87	inhibition at 4 µM (MCF-7 (breast cancer)): 2.35%; inhibition at 8 µM (MCF-7 (breast cancer)): 12.7%; inhibition at 16 µM (MCF-7 (breast cancer)): 17.4%; inhibition at 32 µM (MCF-7 (breast cancer)): 22.6%; inhibition at 64 µM (MCF-7 (breast cancer)): 53.1%; inhibition at 128 µM (MCF-7 (breast cancer)): 70.1%; IC50 (MCF-7 (breast cancer)): > 40 µM; inhibition at 1 µM (normal cell line LX-2): 4.42%; inhibition at 2 µM (normal cell line LX-2): 5.31%; inhibition at 4 µM (normal cell line LX-2): 11.3%; inhibition at 8 µM (normal cell line LX-2): 19.3%; inhibition at 16 µM (normal cell line LX-2): 24.4%; inhibition at 32 µM (normal cell line LX-2): 40.4%; inhibition at 64 µM (normal cell line LX-2): 79.4%; inhibition at 128 µM (normal cell line LX-2): 80.5%; IC50 (normal cell line LX-2): > 40 µM
CCCC(O)C1=C(C)C(=O)C(C)C1 (centres unmarked) [compound 3, diaportone B]	6.32	12	19.4	21.4	27.3	28.5	34.1	59.4	> 40	8.12	14.3	19.2	25.3	30.6	42.1	54.8	75.3	> 40	8.01	13.3	inhibition at 4 µM (MCF-7 (breast cancer)): 14.8%; inhibition at 8 µM (MCF-7 (breast cancer)): 21.4%; inhibition at 16 µM (MCF-7 (breast cancer)): 30.5%; inhibition at 32 µM (MCF-7 (breast cancer)): 41.4%; inhibition at 64 µM (MCF-7 (breast cancer)): 62.7%; inhibition at 128 µM (MCF-7 (breast cancer)): 76.1%; IC50 (MCF-7 (breast cancer)): > 40 µM; inhibition at 1 µM (normal cell line LX-2): 6.32%; inhibition at 2 µM (normal cell line LX-2): 5.31%; inhibition at 4 µM (normal cell line LX-2): 11.4%; inhibition at 8 µM (normal cell line LX-2): 20.6%; inhibition at 16 µM (normal cell line LX-2): 28.3%; inhibition at 32 µM (normal cell line LX-2): 34.8%; inhibition at 64 µM (normal cell line LX-2): 50.5%; inhibition at 128 µM (normal cell line LX-2): 70.2%; IC50 (normal cell line LX-2): > 40 µM
CCCC(O)C1=C(C)C(=O)CC1C (centres unmarked) [compound 4, phomotenone]	5.57	8.31	7.46	13.1	23.8	46.7	74.3	82.1	> 40	6.5	7.63	14.3	20.2	31.4	37.3	54.7	73	> 40	3.45	7.63	inhibition at 4 µM (MCF-7 (breast cancer)): 13.1%; inhibition at 8 µM (MCF-7 (breast cancer)): 20.4%; inhibition at 16 µM (MCF-7 (breast cancer)): 27.3%; inhibition at 32 µM (MCF-7 (breast cancer)): 36.1%; inhibition at 64 µM (MCF-7 (breast cancer)): 50.6%; inhibition at 128 µM (MCF-7 (breast cancer)): 72.2%; IC50 (MCF-7 (breast cancer)): > 40 µM; inhibition at 1 µM (normal cell line LX-2): 7.34%; inhibition at 2 µM (normal cell line LX-2): 9.3%; inhibition at 4 µM (normal cell line LX-2): 12%; inhibition at 8 µM (normal cell line LX-2): 18.1%; inhibition at 16 µM (normal cell line LX-2): 24.6%; inhibition at 32 µM (normal cell line LX-2): 41.1%; inhibition at 64 µM (normal cell line LX-2): 70%; inhibition at 128 µM (normal cell line LX-2): 87.1%; IC50 (normal cell line LX-2): > 40 µM

— article PMC8640094, “Diaportones A–C: Three New Metabolites From Endophytic Fungus Diaporthe foeniculina BZM-15” (Frontiers in Chemistry, 2021)
